According to US11578079B2, “SUMO inhibitor compounds and uses thereof” (CITY OF HOPE, priority 2018, dated 2023):

Experiments:
[1] = target: T1, SUMO (Homo sapiens, UniProt Q9UBT2); experiment: SUMO activity (Table I, biological activities); type: biochemical; set-up: key: + (less active); ++ (active); +++ (most active)
T1 sequence (Q9UBT2 1-640): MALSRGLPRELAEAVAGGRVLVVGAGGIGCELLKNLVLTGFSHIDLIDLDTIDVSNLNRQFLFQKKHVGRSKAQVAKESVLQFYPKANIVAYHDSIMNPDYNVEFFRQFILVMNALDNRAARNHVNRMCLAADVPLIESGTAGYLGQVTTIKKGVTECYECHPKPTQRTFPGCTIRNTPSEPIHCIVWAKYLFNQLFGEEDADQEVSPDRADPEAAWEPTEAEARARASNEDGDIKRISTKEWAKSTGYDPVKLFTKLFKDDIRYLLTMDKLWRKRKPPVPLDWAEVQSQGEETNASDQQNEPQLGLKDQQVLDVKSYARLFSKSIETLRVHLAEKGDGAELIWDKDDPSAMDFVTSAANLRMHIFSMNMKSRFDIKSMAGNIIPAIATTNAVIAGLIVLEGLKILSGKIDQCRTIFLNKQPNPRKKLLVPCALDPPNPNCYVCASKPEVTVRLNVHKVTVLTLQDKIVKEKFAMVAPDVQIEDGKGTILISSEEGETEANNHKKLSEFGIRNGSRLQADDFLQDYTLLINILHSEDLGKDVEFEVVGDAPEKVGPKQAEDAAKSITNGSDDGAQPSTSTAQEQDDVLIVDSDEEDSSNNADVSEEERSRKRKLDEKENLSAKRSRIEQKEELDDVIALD
T1 sequence (Q9UBE0 1-346 partner): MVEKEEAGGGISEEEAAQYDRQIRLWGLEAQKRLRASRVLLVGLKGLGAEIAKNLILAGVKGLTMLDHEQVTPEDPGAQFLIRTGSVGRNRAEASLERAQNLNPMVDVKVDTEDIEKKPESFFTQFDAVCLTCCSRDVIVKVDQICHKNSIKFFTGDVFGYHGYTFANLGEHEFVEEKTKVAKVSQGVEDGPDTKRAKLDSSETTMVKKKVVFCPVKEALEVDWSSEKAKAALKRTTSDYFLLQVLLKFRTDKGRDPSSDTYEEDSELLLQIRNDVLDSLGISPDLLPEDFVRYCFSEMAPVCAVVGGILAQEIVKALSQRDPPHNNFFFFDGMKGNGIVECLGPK

[2] = system: c-Myc; experiment: c-Myc activity (Table I, biological activities); set-up: key: + (less active); ++ (active); +++ (most active)

Row | SUMO [1] | SMILES | c-Myc [2]
1 | ++ | COC(=O)C1=C(C(=O)OC)C2(C(Cc3ccc(Cl)cc3)Nc3cc(F)cc(F)c3)C=CC1O2 (stereo not shown) [Compound 425] | +
2 | ++ | COC(=O)C1=C(C(=O)NCCN(C)C)C2C=CC1(C(Cc1ccc(Cl)cc1)Nc1cc(F)cc(F)c1)O2 (stereo not shown) [Compound 426] | ++
3 | ++ | CCN(CC)CCNC(=O)C1=C(C(=O)OC)C2(C(Cc3ccc(Cl)cc3)Nc3cc(F)cc(F)c3)C=CC1O2 (stereo not shown) [Compound 427] | ++
4 | ++ | COC(=O)C1=C(C(=O)OC)C2(C(Cc3ccc(C)cc3)Nc3cc(F)cc(F)c3)C=CC1O2 (stereo not shown) [Compound 428] | +
5 | ++ | CCN(CC)CCNC(=O)C1=C(C(=O)OC)C2(C(Cc3ccc(C)cc3)Nc3cc(F)cc(F)c3)C=CC1O2 (stereo not shown) [Compound 429] | ++
6 | ++ | CCN(CC)CCNC(=O)C1=C(C(=O)OC)C2(C(Cc3ccc(C)cc3)Nc3cc(F)cc(F)c3)C=CC1O2 (stereo not shown) [Compound 430] | ++
7 | ++ | COC(=O)C1=C(C(=O)NCCN(C)C)C2C=CC1(C(Cc1ccccc1)Nc1c(F)cccc1F)O2 (stereo not shown) [Compound 431] | +
8 | ++ | COC(=O)C1=C(C(=O)NCCN(C)C)C2C=CC1(C(Cc1ccccc1)Nc1c(F)cccc1F)O2 (stereo not shown) [Compound 432] | +
9 | ++ | CCN(CC)CCNC(=O)C1=C(C(=O)OC)C2(C(Cc3ccccc3)Nc3c(F)cccc3F)C=CC1O2 (stereo not shown) [Compound 433] | +
10 | ++ | CCOC(=O)C1=C(C(=O)NCCN(CC)CC)C2C=CC1(C(Cc1ccccc1)Nc1c(F)cccc1F)O2 (stereo not shown) [Compound 434] | ++
11 | +++ | COC(=O)C1=C(C(=O)NCCN(C)C)C2C=CC1(C(Cc1cccc(F)c1)Nc1cc(F)cc(F)c1)O2 (stereo not shown) [Compound 435] | ++
12 | +++ | CCN(CC)CCNC(=O)C1=C(C(=O)OC)C2(C(Cc3cccc(F)c3)Nc3cc(F)cc(F)c3)C=CC1O2 (stereo not shown) [Compound 436] | ++
13 | + | CNCCNC(=O)C1=C(C(=O)OC)C2(C(Cc3ccccc3)Nc3ccccc3)C=CC1O2 (stereo not shown) [Compound 437] | +
14 | ++ | COC(=O)C1=C(C(=O)NCCN(C)C)C2C=CC1(C(Cc1ccccc1)Oc1ccccc1)O2 (stereo not shown) [Compound 438] | ++
15 | ++ | CCN(CC)CCNC(=O)C1=C(C(=O)OC)C2(C(Cc3ccccc3)Oc3ccccc3)C=CC1O2 (stereo not shown) [Compound 439] | ++
16 | +++ | COC(=O)C1=C(C(=O)NCCN2CCCC2)C2C=CC1(C(Cc1ccc(C(F)(F)F)cc1)Nc1ccccc1)O2 (stereo not shown) [Compound 440] | ++
17 | +++ | COC(=O)C1=C(C(=O)NCCN2CCCC2)C2C=CC1(C(Cc1ccc(Cl)cc1)Nc1cc(F)cc(F)c1)O2 (stereo not shown) [Compound 441] | ++
18 | +++ | COC(=O)C1=C(C(=O)NCCN2CCCC2)C2C=CC1(C(Cc1ccc(C)cc1)Nc1cc(F)cc(F)c1)O2 (stereo not shown) [Compound 442] | ++
19 | +++ | COC(=O)C1=C(C(=O)NCCN2CCCC2)C2C=CC1(C(Cc1ccccc1)Nc1ccc(F)cc1)O2 (stereo not shown) [Compound 443] | ++
20 | +++ | COC(=O)C1=C(C(=O)NCCN2CCCC2)C2C=CC1(C(Cc1ccccc1)Nc1cc(F)cc(Cl)c1)O2 (stereo not shown) [Compound 444] | ++
21 | ++ | COC(=O)C1=C(C(=O)OC)C2(C(Cc3ccc(F)cc3)Nc3ccccc3)C=CC1O2 (stereo not shown) [Compound 445] | +
22 | ++ | CCOC(=O)C1=C(C(=O)OCC)C2(C(Cc3ccc(F)cc3)Nc3ccccc3)C=CC1O2 (stereo not shown) [Compound 446] | +
23 | ++ | COC(=O)C1=C(C(=O)NCCN(C)C)C2C=CC1(C(Cc1ccc(F)cc1)Nc1cc(F)cc(Cl)c1)O2 (stereo not shown) [Compound 452] | +
24 | ++ | CCN(CC)CCNC(=O)C1=C(C(=O)OC)C2(C(Cc3ccc(F)cc3)Nc3cc(F)cc(Cl)c3)C=CC1O2 (stereo not shown) [Compound 453] | +
25 | ++ | COC(=O)C1=C(C(=O)NCCN(C)C)C2C=CC1(C(Cc1ccccc1F)Nc1cc(F)cc(F)c1)O2 (stereo not shown) [Compound 455] | ++

Row | SUMO [1] | SMILES | c-Myc [2]
26 | ++ | CCN(CC)CCNC(=O)C1=C(C(=O)OC)C2(C(Cc3ccccc3F)Nc3cc(F)cc(F)c3)C=CC1O2 (stereo not shown) [Compound 456] | ++
27 | ++ | COC(=O)C1=C(C(=O)NCCN2CCC2)C2C=CC1(C(Cc1ccccc1)Nc1ccccc1)O2 (stereo not shown) [Compound 469] | +
28 | +++ | COC(=O)C1=C(C(=O)Nc2cnc(C)nc2)C2C=CC1(C(Cc1ccccc1)Nc1ccccc1)O2 (stereo not shown) [Compound 478] | +
29 | ++ | COC(=O)C1=C(C(=O)Nc2cnc(C)nc2)C2C=CC1(C(Cc1ccccc1)Oc1ccccc1)O2 (stereo not shown) [Compound 480] | +
30 | + | CCOC(=O)C1=C(C(=O)Nc2ccc(C)c(F)c2)C2C=CC1(C(Oc1ccc(F)cc1)c1ccc(CN3CCOCC3)cc1)O2 (stereo not shown) [Compound 486] | ++
31 | ++ | COC(=O)C1=C(C(=O)NC2CCN(C)CC2)C2C=CC1(C(Cc1ccc(C(F)(F)F)cc1)Nc1ccccc1)O2 (stereo not shown) [Compound 488] | ++
32 | ++ | COC(=O)C1=C(C(=O)Nc2ccc(CN(C)C)c(F)c2)C2C=CC1(C(Cc1ccccc1)Nc1ccccc1)O2 (stereo not shown) [Compound 489] | +
33 | +++ | COC(=O)C1=C(C(=O)Nc2ccc(OCCN(C)C)cc2)C2C=CC1(C(Cc1ccccc1)Nc1ccccc1)O2 (stereo not shown) [Compound 491] | +
34 | +++ | COC(=O)C1=C(C(=O)NC2CN(C)C2)C2C=CC1(C(Cc1ccccc1)Nc1ccccc1)O2 (stereo not shown) [Compound 492] | +
35 | + | COC(=O)C1=C(C(=O)Nc2ccc(N3CCN(C)CC3)c(F)c2)C2C=CC1(C(Cc1ccccc1)Nc1ccccc1)O2 (stereo not shown) [Compound 494] | +
36 | + | COC(=O)C1=C(C(=O)Nc2ccc(C)c(F)c2)C2C=CC1(C(Oc1ccccc1)c1ccc(CN3CCOCC3)cc1)O2 (stereo not shown) [Compound 496] | +
37 | ++ | COC(=O)C1=C(C(=O)Nc2ccc(OCCN(C)C)c(F)c2)C2C=CC1(C(Cc1ccccc1)Nc1ccccc1)O2 (stereo not shown) [Compound 500] | +
38 | +++ | COC(=O)C1=C(C(=O)Nc2ccc(OCCN3CCN(C)CC3)cc2)C2C=CC1(C(Cc1ccccc1)Nc1ccccc1)O2 (stereo not shown) [Compound 501] | +
39 | +++ | COC(=O)C1=C(C(=O)Nc2ccc(OCCN3CCOCC3)cc2)C2C=CC1(C(Cc1ccccc1)Nc1ccccc1)O2 (stereo not shown) [Compound 502] | +
40 | ++ | COC(=O)C1=C(C(=O)Nc2ccc(CN3CCN(C)CC3)cc2)C2C=CC1(C(Cc1ccccc1)Nc1ccccc1)O2 (stereo not shown) [Compound 504] | +
41 | ++ | COC(=O)C1=C(C(=O)Nc2ccc(OCCN3CCCC3)cc2)C2C=CC1(C(Cc1ccccc1)Nc1ccccc1)O2 (stereo not shown) [Compound 505] | +
42 | ++ | COC(=O)C1=C(C(=O)Nc2ccc(CN(C)C)cc2)C2C=CC1(C(Cc1ccccc1)Nc1ccccc1)O2 (stereo not shown) [Compound 506] | +
43 | ++ | COC(=O)C1=C(C(=O)Nc2ccc(CN3CCOCC3)cc2)C2C=CC1(C(Cc1ccccc1)Nc1ccccc1)O2 (stereo not shown) [Compound 507] | +
44 | ++ | COC(=O)C1=C(C(=O)Nc2ccc(CN3CCCC3)cc2)C2C=CC1(C(Cc1ccccc1)Nc1ccccc1)O2 (stereo not shown) [Compound 508] | +
45 | ++ | CCOC(=O)C1=C(C(F)(F)F)C2(C(Cc3ccccc3)Oc3ccccc3)C=CC1O2 (stereo not shown) [Compound 513] | ++
46 | ++ | COC(=O)C1=C(C(=O)OC)C2(C(Cc3ccccc3)Oc3ccccc3)OC1C1OC12 (stereo not shown) [Compound 515] | +
47 | ++ | Cc1ccc(S(=O)(=O)C2=CC3(C4OCCO4)C=CC2O3)cc1 (stereo not shown) [Compound 516] | +
48 | ++ | CCOC(=O)C1=C(C(F)(F)F)C2C=CC1(C1OCCO1)O2 (stereo not shown) [Compound 519] | +
49 | + | COC(=O)C1=C(C(=O)Nc2ccc(OC)cc2)C2OC1(C(Cc1ccccc1)Oc1ccccc1)C1OC21 (stereo not shown) [Compound 522] | +
50 | ++ | O=C(C1=CC2(C3OCCO3)C=CC1O2)c1ccc(F)cc1 (stereo not shown) [Compound 523] | +
